# From patent publication US9333188B2, “Composition and method for improving survival of bee colonies” (Science in Water B.V., priority 2012, dated 2016)
# System: bees
# Assay: Beekeeper field trial: winter survival of bee hives after feeding
# Assay type: in vivo
# Conditions: populations given only iron(II) fumarate
# Description: In a trial, a number or beekeepers (16) used a solution of vinasse containing dissolved iron(II) fumarate with the goal of reducing instances of winter mortality and CCD. This solution was mixed with 100-200 ml of sugar syrup. The solution thus obtained was administered to bees with their feed. The quantities and results were as follows: A total of approximately 1,000 mg of iron(II) fumarate, or 333 mg Fe (i.e. 5.8 millimoles iron(II)) was administered per 5 kg of bees. This quantity was administered in small portions. The initial moments of the series administrations ranged from 5 August 2011 to 15 September 2011. The administration frequencies ranged from one time per week to one time per 3 days. If administration was started late in the season, administration was one time per 3 days to ensure that a consistent total amount of iron(II) fumarate was administered across the test populations. […] In a control populations given only pure vinasse the queens were dead within 14 days; these populations were then not viable and after the death of the queen, remaining bees in the population were merged with another population. In one case, the total amount of iron(II) fumarate and vinasse was added to 15 kg of sugar syrup. This emulsion was administered as a winter sugar, until the mixture was consumed. […]
smiles,measurement,value
O=C([O-])/C=C/C(=O)[O-].[Fe+2] [iron(II) fumarate],winter survival of control populations,"survived the winter, but in a very weak state"
